From paper PMC3944524, “Antimicrobial Activity of the Marine Alkaloids, Clathrodin and Oroidin, and Their Synthetic Analogues” (Marine Drugs, 2014)
≈ marks a conversion by molar mass, not a printed value.

Columns and labels:
[1] = system: Enterococcus faecalis (ATCC 29212); assay: Broth microdilution antimicrobial assay, Enterococcus faecalis; type: cell-based; details: for SI (selectivity index): E. faecalis MIC50 vs Huh-7 cytotoxicity IC50; for MIC90 / MIC50: Enterococcus faecalis; for MIC90: ATCC29212, 24 h; for MIC50: ATCC29212, E. faecalis ATCC 29212, 24 h, sigmoidal curve fitting
Description: (§1) Clinical control strains of Enterococcus faecalis (Gram-positive, ATCC 29212), Staphylococcus aureus (Gram-positive, ATCC 25923), Escherichia coli (Gram-negative, ATCC 25922) and a fungal strain, Candida albicans (ATCC 90028), were obtained from Microbiologics Inc. (St. Cloud, MN, USA) and used for the antimicrobial screening. Bacterial strains were grown on Mueller Hinton II agar (MHA, Becton Dickinson, Franklin Lakes, NJ, USA) […] Mueller Hinton II broth (MHB, Becton Dickinson, Franklin Lakes, NJ, USA) and the Candida strain on Sabouraud dextrose agar (SDA, Becton Dickinson, Franklin Lakes, NJ, USA) plates. Media were prepared in MilliQ water, according to the manufacturer's instructions, and autoclaved at 121 °C for 15 min. […] The Candida strain was grown on SDA plates at 28 °C for 18-24 h and suspended into sterile 0.9% saline for the assay. Antimicrobial assays were performed by the broth microdilution method following the guidelines of the Clinical and Laboratory Standards Institute (CLSI) and European Committee on Antimicrobial Susceptibility Testing (EUCAST). […] The Candida suspension was prepared in sterile 0.9% saline solution, and the suspension was diluted in RPMI-1640 media (with L-glutamine, without NaHCO3 and supplemented with 2% glucose and 0.165 M MOPS, buffered to pH 7; Lonza, Basel, Switzerland) to yield a final inoculum of 2.5 × 10^3 CFU/mL in the assay. Assays were carried out in clear 96-well microtiter plates and initiated by dispensing an equal volume of microbial suspension and sample solution diluted into the assay medium. The plates were incubated for 24 h at 37 °C (for Candida, the incubation was at 28 °C for 48 h) with agitation. […] The antimicrobial activity of the samples was calculated from the absorbance values by comparing to untreated controls and expressed as the percentage inhibition of growth. Reference antibiotics were used as positive controls on every assay plate (see Figure 2 for details). […] MIC50 values were determined from the dose-response results by sigmoidal curve fitting with Origin software (OriginLab, Corp., Wellesley Hills, MA, USA).

[2] = system: Staphylococcus aureus (ATCC 25923); assay: Broth microdilution antimicrobial assay, Staphylococcus aureus; type: cell-based; details: for SI (selectivity index): S. aureus MIC50 vs Huh-7 cytotoxicity IC50; for MIC90 / MIC50: Staphylococcus aureus; for MIC90: ATCC25923, 24 h; for MIC50: ATCC25923, S. aureus ATCC 25923, 24 h, sigmoidal curve fitting
Description: as §1

[3] = Mammalian cell cytotoxicity, ATP assay (CellTiter-Glo); type: cell-based, human; details: human, Huh-7 cells, ATP assay, 24 h exposure, average of two dose-response experiments
Description: Huh-7 cells (originating from human hepatocellular carcinoma) were kindly provided by Prof. Ralf Bartenschlager (University of Heidelberg, Heidelberg, Germany). […] The cells were incubated at 37 °C in a humidified atmosphere with 5% CO2. The effect of the most promising compounds on the metabolic activity of Huh-7 hepatocytes was assessed by intracellular ATP quantitation (Promega’s CellTiter-Glo Cell Viability Assay, Madison, WI, USA). In brief, cells were seeded at 20,000 cells/well on white-walled 96-well microplates (ViewPlate, PerkinElmer Inc., Wellesley, MA, USA) and incubated at 37 °C, 5% CO2 and 95% humidity overnight and then exposed to the compounds for 24 h. Following the exposure, cells were washed with 100 µL PBS, and 50 µL of fresh assay media and 50 µL of the CellTiter-Glo reagent were added into the wells. After 2 min of shaking and 10 min incubation at rt, luminometric signal was measured using a Varioskan Flash plate reader (Thermo Fisher Scientific, Vantaa, Finland). […] The IC50 values were calculated by fitting the data into sigmoidal dose-response curves with the Origin software.

melting point | MIC90 [1] | MIC50 [1] | MIC90 [2] | MIC50 [2] | SMILES | SI (selectivity index) [1] | SI (selectivity index) [2] | IC50 at 24 h [3]
 | 50 µM (≈ 15.9 µg/mL) | 34 µM (≈ 10.8 µg/mL) | 50 µM (≈ 15.9 µg/mL) | 29.4 µM (≈ 9.33 µg/mL) | Nc1nc(-c2cccc(NC(=O)c3cc4ccccc4[nH]3)c2)c[nH]1 [Compound 6d] | 1.2 | 1.4 | 42.3 µM
237 to 241 °C |  |  | 50 µM | 11.9 µM | COc1ccc2[nH]c(C(=O)Nc3cccc(-c4c[nH]c(N)n4)c3)cc2c1.Cl [Compound 6f, 2-Amino-4-(3-(5-methoxy-1H-indole-2-carboxamido)phenyl)-1H-imidazol-3-ium chloride] |  | 2.7 | 32.2 µM
255 to 260 °C |  |  |  |  | Cl.Nc1nc(-c2cccc(NC(=O)c3cc4cc(OC(F)(F)F)ccc4[nH]3)c2)c[nH]1 [Compound 6g, 2-Amino-4-(3-(5-(trifluoromethoxy)-1H-indole-2-carboxamido)phenyl)-1H-imidazol-3-ium chloride] |  |  | 
201 to 204 °C |  |  | 50 µM | 7.2 µM | Cl.Nc1nc(-c2cccc(NC(=O)c3cc4cc(Cl)ccc4[nH]3)c2)c[nH]1 [Compound 6i, 2-Amino-4-(3-(5-chloro-1H-indole-2-carboxamido)phenyl)-1H-imidazol-3-ium chloride] |  | 3.0 | 21.7 µM
202 to 205 °C | 100 µM | 27.3 µM | 50 µM | 22.1 µM | Cl.Nc1nc(-c2cccc(NC(=O)c3cc4cc(F)ccc4[nH]3)c2)c[nH]1 [Compound 6j, 2-Amino-4-(3-(5-fluoro-1H-indole-2-carboxamido)phenyl)-1H-imidazol-3-ium chloride] | 0.7 | 0.9 | 19.8 µM
198 to 202 °C |  |  | 100 µM | 27.1 µM | Cl.Nc1nc(-c2cccc(NC(=O)c3cc4sccc4[nH]3)c2)c[nH]1 [Compound 6k, 4-(3-(4H-Thieno[3,2-b]pyrrole-5-carboxamido)phenyl)-2-amino-1H-imidazol-3-ium chloride] |  | 2.0 | 53.6 µM
 | 100 µM (≈ 33.1 µg/mL) | 54.2 µM (≈ 18 µg/mL) | 75 µM (≈ 24.9 µg/mL) | 10.8 µM (≈ 3.58 µg/mL) | CNc1nc(-c2cccc(NC(=O)c3cc4ccccc4[nH]3)c2)c[nH]1 [Compound 6l] | 1.0 | 4.9 | 52.3 µM

Second part, the compound before the results:

SMILES | melting point | MIC90 [1] | MIC50 [1] | MIC90 [2] | MIC50 [2] | SI (selectivity index) [1] | SI (selectivity index) [2] | IC50 at 24 h [3]
COc1ccc2[nH]c(C(=O)Nc3cccc(-c4cn(C(=O)OC(C)(C)C)c(N)n4)c3)cc2c1 [Compound 5f, tert-Butyl 2-amino-4-(3-(5-methoxy-1H-indole-2-carboxamido)phenyl)-1H-imidazole-1-carboxylate] | 173 to 177 °C |  |  |  |  |  |  | 
CC(C)(C)OC(=O)n1cc(-c2cccc(NC(=O)c3cc4cc(OC(F)(F)F)ccc4[nH]3)c2)nc1N [Compound 5g, tert-Butyl 2-amino-4-(3-(5-(trifluoromethoxy)-1H-indole-2-carboxamido)phenyl)-1H-imidazole-1-carboxylate] | 185 to 187 °C |  |  |  |  |  |  | 
CC(C)(C)OC(=O)n1cc(-c2cccc(NC(=O)c3cc4cc(OCc5ccccc5)ccc4[nH]3)c2)nc1N [Compound 5h, tert-Butyl 2-amino-4-(3-(5-(benzyloxy)-1H-indole-2-carboxamido)phenyl)-1H-imidazole-1-carboxylate] | 140 to 143 °C |  |  |  |  |  |  | 
CC(C)(C)OC(=O)n1cc(-c2cccc(NC(=O)c3cc4cc(F)ccc4[nH]3)c2)nc1N [Compound 5j, tert-Butyl 2-amino-4-(3-(5-fluoro-1H-indole-2-carboxamido)phenyl)-1H-imidazole-1-carboxylate] | 189 to 192 °C |  |  |  |  |  |  | 
CC(C)(C)OC(=O)n1cc(-c2cccc(NC(=O)c3cc4sccc4[nH]3)c2)nc1N [Compound 5k, tert-Butyl 4-(3-(4H-thieno[3,2-b]pyrrole-5-carboxamido)phenyl)-2-amino-1H-imidazole-1-carboxylate] | 178 to 180 °C |  |  |  |  |  |  | 
CC(C)(C)OC(=O)n1cc(-c2cccc(NC(=O)c3cc4cc(O)ccc4[nH]3)c2)nc1N [Compound 7, tert-Butyl 2-Amino-4-(3-(5-hydroxy-1H-indole-2-carboxamido)phenyl)-1H-imidazole-1-carboxylate] | 192 to 196 °C |  |  | 100 µM (≈ 43.3 µg/mL) | 11.6 µM (≈ 5.03 µg/mL) |  |  | 94 µM
Cl.Nc1nc(-c2cccc(NC(=O)c3cc4cc(O)ccc4[nH]3)c2)c[nH]1 [Compound 8, 2-Amino-4-(3-(5-hydroxy-1H-indole-2-carboxamido)phenyl)-1H-imidazol-3-ium chloride] | 248 to 252 °C |  |  | 100 µM | 40.5 µM |  | >2.5 | > 100 µM
Nc1nc(-c2cccc(NC(=O)c3ccc[nH]3)c2)cn1Cc1ccccc1 [Compound 15, N-(3-(2-Amino-1-benzyl-1H-imidazol-4-yl)phenyl)-1H-pyrrole-2-carboxamide] | 229 to 232 °C |  |  |  |  |  |  | 
Nc1nc(-c2cccc(NCc3ccc[nH]3)c2)cn1Cc1ccccc1 [Compound 16, 4-(3-(((1H-Pyrrol-2-yl)methyl)amino)phenyl)-1-benzyl-1H-imidazol-2-amine] | 165 to 168 °C |  |  |  |  |  |  | 
